Results: patent publication US20260001853A1, “ASCORBIC ACID DERIVATIVE OR SALT THEREOF, AND COSMETIC THEREOF” (SEIWA KASEI COMPANY, LIMITED, priority 2022, published 2026)

What was measured:
[1] = Stability test (residual rate by HPLC, odor, coloring); assay type: physicochemical; settings: 1% aqueous solution; for Coloring / Odor: total score of 10 panelists
Procedure: With a dilute potassium hydroxide aqueous solution, 1% aqueous solution of each test sample was adjusted to pH 6, placed in a 50 mL screw tube, sealed, […], and then subjected to HPLC measurement (using a liquid chromatograph manufactured by Shimadzu Corporation) to determine the residual rate from the peak area. The residual rate, odor, and coloring degree were evaluated according to the following methods and criteria.
Residual rate: • ⊚: 90% or more • ◯: 80% or more, less than 90% • Δ: 60% or more, less than 80% • x: 20% or more, less than 60% • xx: Less than 20%
Evaluation was made by 10 panelists according to the following criteria. • 3: Almost odorless • 2: There is a slight strange odor. • 1: A strong odor is detected.
Based on the evaluation results, the following classification was made: • ⊚: Total score of 10 panelists is 25 or more • ◯: Total score of 10 panelists is 20-24 • Δ: Total score of 10 panelists is 16-19 • x: The total score of 10 panelists is 15 or less
Evaluation was made by 10 panelists according to the following criteria. • 3: Almost no change compared to immediately after preparation. • 2: Color changes compared to immediately after preparation. • 1: Strongly colored compared to immediately after preparation.
Based on the evaluation results, the following classification was made: • ◯: Total score of 10 panelists is 25 or more • Δ: Total score of 10 panelists is 16-24 • x: The total score of 10 panelists is 15 or less

[2] = system: Normal human dermal fibroblasts; assay: Collagen production promoting effect (ELISA of supernatant); assay type: cell-based; settings: amount of collagen produced, % with control group taken as 100%; sample at 10 mmol/L or less, 48 hours, N=3
Procedure: Normal human dermal fibroblasts were prepared in D-MEM containing 5% (v/v) fetal bovine serum to a cell density of […] cells/well, and pre incubated on a 96-well plate for 24 hours. After removing the medium, samples prepared to a predetermined concentration in D-MEM containing 5% (v/v) fetal bovine serum were added to each well and cultured for 48 hours. After completion of the culture, the amount of free collagen in the supernatant was quantified by ELISA method. The measurement was performed with N=3.
(§1) The amount of collagen produced when the samples were measured at a concentration of 10 mmol/L or less was compared with that of the control group, and the results (% values when the control group is taken as 100%) are shown in Tables 15 to 17 based on the following criteria. • <100%: ± • 100-120%: + • 120%: ++

[3] = system: B16 melanoma 4A5 cells; assay: Melanin production inhibitory effect (theophylline-induced melanin production); assay type: cell-based, mouse; settings: melanin production inhibition rate, sample at a concentration of 10 mM or less, 3 days culture, theophylline 1 mmol/L, N=4
Procedure: As a test of the whitening effect, the effect on theophylline-induced melanin production in B16 melanoma 4A5 cells was evaluated for the ascorbic acid derivatives of the present invention according to the following procedure. A similar evaluation was also performed for a known ascorbic acid derivative for comparison. The results are shown in Tables 9 to 11. • (1) B16 mouse melanoma 4A5 cells were seeded in a 48-well plate at a cell density of 8.0×10^3 cells/well. • (2) After culturing for 24 hours in Dulbecco's modified Eagle's medium (manufactured by SIGMA, hereinafter abbreviated as “D-MEM”) containing 10% fetal bovine serum, the medium was replaced with D-MEM containing 10% fetal bovine serum containing theophylline (final concentration 1 mmol/L) and a specified concentration of a sample. • (3) After culturing for 3 days in the presence of the sample, the medium was removed using an aspirator, distilled water was added, and the cells were disrupted by ultrasonication. • (4) The amount of protein was then quantified using a BCA protein assay kit (manufactured by PIERCE), and the amount of melanin produced was measured by an alkali solubilization method. Sodium hydroxide was added to the cell lysate to a final concentration of 1 mol/L, and the solution was dissolved by heating (60° C., 30 minutes), thereafter the absorbance at 405 nm was measured using a microplate reader. The amount of melanin was calculated from a calibration curve prepared using synthetic melanin (SIGMA) as a standard. The amount of melanin per unit protein was calculated by dividing the amount of melanin by the amount of protein. • (5) The melanin production inhibition rate was calculated using the following formula.
[In the formula, A represents the amount of melanin per unit protein (g/g) when the sample was added, B represents the amount of melanin per unit protein (g/g) in the normal group, and C represents the amount of melanin per unit protein (g/g) in the control group.]
The melanin production inhibition rate when the sample was measured at a concentration of 10 mM or less is expressed as follows. The measurement was performed with N=4. • <20%: ± • 20-40%: + • 40-60%: ++ • 60-100%: +++

[4] = system: Normal human dermal fibroblasts (NHDF); assay: Hyaluronic acid production promoting effect (ELISA of supernatant); assay type: cell-based; settings: amount of hyaluronic acid produced, % with control group taken as 100%; sample at 10 mmol/L or less, 48 hours, N=3
Procedure: Normal human dermal fibroblasts (NHDF) were prepared in D-MEM containing 5% (v/v) fetal bovine serum to a cell density of 2.5× 10^4 cells/well, and then pre-incubated on a 96-well plate for 24 hours. After removing the medium, samples prepared in serum-free D-MEM were added to each well and cultured for 48 hours. After the culture was completed, the amount of hyaluronic acid in the supernatant was quantified by ELISA method. The measurement was performed with N=3.
as §1, with “of hyaluronic acid” for “of collagen”, “Tables 18” for “Tables 15”, “to 20” for “to 17”, “• 120-150%:” for “• 120%:”, “++ • 150%: +++” for “++”

[5] = pH 6, stored at 50° C., four weeks later
[6] = pH 6, stored at 50° C., two weeks later

Structure (SMILES) | Residual rate ([1]; pH 6, 50° C., initial) | Coloring ([1]; pH 6, 50° C., initial) | Odor ([1]; pH 6, 50° C., initial) | Residual rate [1, 5] | Coloring [1, 5] | Odor [1, 5] | Residual rate [1, 6] | Coloring [1, 6] | Odor [1, 6] | Collagen production promoting effect [2] | Melanin production inhibition effect [3] | Hyaluronic acid production promoting effect [4]
CCCCCCCCCCCCOCC(O)COC1=C(OCC(C)(C)O)C(C(O)CO)OC1=O (stereo not drawn) [Synthesis Example 31, 2-O-(2-hydroxy-3-O-dodecyl)-3-O-(2-hydroxyisobutyl) ascorbic acid] | ⊚ (⊚: 90% or more) | ◯ (◯: Total score of 10 panelists is 25 or more) | ⊚ (⊚: Total score of 10 panelists is 25 or more) | ⊚ (⊚: 90% or more) | ◯ (◯: Total score of 10 panelists is 25 or more) | ◯ (◯: Total score of 10 panelists is 20-24) | ⊚ (⊚: 90% or more) | ◯ (◯: Total score of 10 panelists is 25 or more) | ⊚ (⊚: Total score of 10 panelists is 25 or more) | ++ (120%: ++) | + (20-40%: +) | ++ (120-150%: ++)
CCCCCCCCC(O)COC1=C(OCC(C)(C)O)C(=O)O[C@@H]1[C@@H](O)CO (stereo partly drawn) [Synthesis Example 36, 2-O-(2-hydroxyisobutyl)-3-O-(2-hydroxydecyl) ascorbic acid] | ⊚ (⊚: 90% or more) | ⊚ | ◯ (◯: Total score of 10 panelists is 20-24) | ⊚ (⊚: 90% or more) | ◯ (◯: Total score of 10 panelists is 25 or more) | ◯ (◯: Total score of 10 panelists is 20-24) | ⊚ (⊚: 90% or more) | ◯ (◯: Total score of 10 panelists is 25 or more) | ◯ (◯: Total score of 10 panelists is 20-24) | + (100-120%: +) | ++ (40-60%: ++) | ++ (120-150%: ++)
CCCCCCCCCCCCCCC(O)COC1=C(OCC(C)(C)O)C(=O)O[C@@H]1[C@@H](O)CO (stereo partly drawn) [Synthesis Example 37, 2-O-(2-hydroxyisobutyl)-3-O-(2-hydroxyhexadecyl) ascorbic acid] | ⊚ (⊚: 90% or more) | ◯ (◯: Total score of 10 panelists is 25 or more) | ⊚ (⊚: Total score of 10 panelists is 25 or more) | ⊚ (⊚: 90% or more) | ◯ (◯: Total score of 10 panelists is 25 or more) | ◯ (◯: Total score of 10 panelists is 20-24) | ⊚ (⊚: 90% or more) | ◯ (◯: Total score of 10 panelists is 25 or more) | ◯ (◯: Total score of 10 panelists is 20-24) | + (100-120%: +) | + (20-40%: +) | ++ (120-150%: ++)
CC(C)(O)COC1=C(OCC(O)c2ccccc2)C(C(O)CO)OC1=O (stereo not drawn) [Synthesis Example 38, 2-O-(2-hydroxyisobutyl)-3-O-(2-hydroxyethylbenzene) ascorbic acid] | ⊚ (⊚: 90% or more) | ⊚ | ◯ (◯: Total score of 10 panelists is 20-24) | ⊚ (⊚: 90% or more) | ◯ (◯: Total score of 10 panelists is 25 or more) | ◯ (◯: Total score of 10 panelists is 20-24) | ⊚ (⊚: 90% or more) | ◯ (◯: Total score of 10 panelists is 25 or more) | ◯ (◯: Total score of 10 panelists is 20-24) | ++ (120%: ++) | ++ (40-60%: ++) | ++ (120-150%: ++)
CC(O)COC1=C(OCC(C)(C)O)[C@@H]([C@@H](O)CO)OC1=O (stereo partly drawn) [Synthesis Example 39, 3-O-(2-hydroxyisobutyl)-2-O-(2-hydroxypropyl) ascorbic acid] | ⊚ (⊚: 90% or more) | ⊚ | ⊚ (⊚: Total score of 10 panelists is 25 or more) | ⊚ (⊚: 90% or more) | ◯ (◯: Total score of 10 panelists is 25 or more) | ◯ (◯: Total score of 10 panelists is 20-24) | ⊚ (⊚: 90% or more) | ◯ (◯: Total score of 10 panelists is 25 or more) | ◯ (◯: Total score of 10 panelists is 20-24) | + (100-120%: +) | +++ (60-100%: +++) | +++ (150%: +++)
CCC(O)COC1=C(OCC(C)(C)O)[C@@H]([C@@H](O)CO)OC1=O (stereo partly drawn) [Synthesis Example 40, 3-O-(2-hydroxyisobutyl)-2-O-(2-hydroxybutyl) ascorbic acid] | ⊚ (⊚: 90% or more) | ◯ (◯: Total score of 10 panelists is 25 or more) | ◯ (◯: Total score of 10 panelists is 20-24) | ⊚ (⊚: 90% or more) | ◯ (◯: Total score of 10 panelists is 25 or more) | ◯ (◯: Total score of 10 panelists is 20-24) | ⊚ (⊚: 90% or more) | ◯ (◯: Total score of 10 panelists is 25 or more) | ◯ (◯: Total score of 10 panelists is 20-24) | ++ (120%: ++) | ++ (40-60%: ++) | ++ (120-150%: ++)
CCCCCCCCC(O)COC1=C(OCC(C)(C)O)[C@@H]([C@@H](O)CO)OC1=O (stereo partly drawn) [Synthesis Example 41, 3-O-(2-hydroxyisobutyl)-2-O-(2-hydroxydecyl) ascorbic acid] | ⊚ (⊚: 90% or more) | ◯ (◯: Total score of 10 panelists is 25 or more) | ◯ (◯: Total score of 10 panelists is 20-24) | ⊚ (⊚: 90% or more) | ◯ (◯: Total score of 10 panelists is 25 or more) | ◯ (◯: Total score of 10 panelists is 20-24) | ⊚ (⊚: 90% or more) | ◯ (◯: Total score of 10 panelists is 25 or more) | ◯ (◯: Total score of 10 panelists is 20-24) | + (100-120%: +) | ++ (40-60%: ++) | ++ (120-150%: ++)
